Laboratory results: the supplement of paper PMC11451515

Columns and labels:
Experiment in all cases: AUC of viability dose-response curve (% viability x log10 dose units); higher = less sensitive
Settings in all cases: 48 h
NOMO1 = test system: NOMO1
How it was run: (§1)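 Leukemia cells adapted to each medium were seeded in 1536-well plates (500 or 1000 cells/well). They were dosed with library compounds in DMSO at 11 threefold doses, 47 μM to 0.79 nM, for 48 h at 37°C. CellTiter-Glo One luminescence was normalised per plate to DMSO and cell-free wells. Area under the curve was integrated by trapezoidal rule over log10 doses on a four-parameter log-logistic fit; curves exceeding full viability were scaled and curves failing quality control removed.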

P12-Ichikawa = test system: P12-Ichikawa
How it was run: as §1

SEM cells = test system: SEM cells
How it was run: as §1

[1] = RPMI 5 mM glucose + 10% dialyzed FBS

SMILES	AUC of viability dose-response curve (NOMO1; HPLM + 10% dialyzed FBS)	AUC of viability dose-response curve (NOMO1; RPMI 5 mM glucose + 10% FBS)	AUC of viability dose-response curve (NOMO1; [1])	AUC of viability dose-response curve (P12-Ichikawa; HPLM + 10% dialyzed FBS)	AUC of viability dose-response curve (P12-Ichikawa; RPMI 5 mM glucose + 10% FBS)	AUC of viability dose-response curve (P12-Ichikawa; [1])	AUC of viability dose-response curve (SEM cells; HPLM + 10% dialyzed FBS)	AUC of viability dose-response curve (SEM cells; RPMI 5 mM glucose + 10% FBS)	AUC of viability dose-response curve (SEM cells; [1])
CC(=O)Nc1ccc([C@H](C)C(=O)Nc2ncc(C(C)C)s2)cc1	397	365	386	403	411	408	390	393	387
CCOC(=O)N1CCN(/[N+]([O-])=N/Oc2ccc([N+](=O)[O-])cc2[N+](=O)[O-])CC1	462	429	412	447	425	398	303	324	337
Oc1ccc(/C=C/c2cc(O)cc(O)c2)cc1	425	457	450	462	457	444	450	417	441
Cc1cc(Nc2nc(N[C@@H](C)c3ncc(F)cn3)ncc2Cl)n[nH]1	363	408	422	421	454	425	399	336	365
NC(=O)c1ncn([C@@H]2O[C@H](CO)[C@@H](O)[C@H]2O)n1	354	403	380	447	424	423	471	453	471
Oc1ccc(C2CCN(c3ccnc4ccccc34)CC2)cc1O	445	457	467	427	418	408	399	386	404
CC[C@H]1/C=C\C=C/C[C@@H](C)[C@H](O)[C@@](C)(O)C(=O)[C@@H](C)[C@H](O)[C@@H](C)C(=O)[C@@H](C)[C@H](O)[C@@H](C)/C=C/C(=O)O[C@@H]2[C@H](C)[C@H](CC1)O[C@]1(CC[C@H](C)[C@H](C[C@@H](C)O)O1)[C@H]2C	368	331	324	389	388	363	362	340	354
C=CC1=C(C(=O)O)N2C(=O)[C@@H](NC(=O)/C(=N\O)c3csc(N)n3)[C@H]2SC1	467	438	462				397	435	433
C[C@@H](O)[C@@H]1[C@H]2[C@@H](C)\C(=C(/N2C1=O)C(=O)OCOC(=O)C(C)(C)C)SC3CN(C3)/C4=N/CCS4	421	465	454	471	469	464	467	467	467
COC[C@@H](NC(C)=O)C(=O)NCc1ccccc1	457	467	466	453	465	466	466	449	456
CC1(C)CCC(=C(CN2CCN(CC2)C3=CC=C(C=C3)C(=O)N[S+]([O-])(=O)C4=CC(=C(N[C@H](CCN5CCOCC5)CSC6=CC=CC=C6)C=C4)[S+]([O-])(=O)C(F)(F)F)\C1)/C7=CC=C(Cl)C=C7	357	332	291	235	240	259	216	197	197
Cc1cccc(-c2nn(C(=S)Nc3ccccc3)cc2-c2ccnc3ccccc23)n1	431	461	456	440	444	437	465	455	456
CCC(=O)OCC(=O)[C@@]1(OC(=O)CC)[C@@H](C)C[C@H]2[C@@H]3CCC4=CC(=O)C=C[C@]4(C)[C@@]3(F)[C@@H](O)C[C@@]21C	360	408	391	351	335	317	426	390	372
O=C(O)c1ccc(-n2nc(-c3ccccc3O)nc2-c2ccccc2O)cc1	441	442	408	433	422	422	427	408	415
O=C(NC[C@H](O)CN1CCc2ccccc2C1)c1cc(NC2COC2)ncn1				397	372	388			
CCOc1ccc(Nc2nc(-c3c(C)nc4ccccn34)cs2)cc1	270	252	281	225	232	271	232	213	263
CCC[C@H](N[C@@H](C)C(=O)N1[C@H](C(=O)O)C[C@@H]2CCCC[C@@H]21)C(=O)OCC	394	439	399	454	433	438	469	469	466
CNC1[C@@H](O)C(O[C@@H]2C(O)C(O[C@H]3O[C@H]([C@@H](C)NC)CC[C@H]3N)[C@@H](N)C[C@H]2N)OC[C@]1(C)O (stereo not given in full)	446	448	415	462	444	436	459	421	472
C\C1=C\C(=O)C2=C(C=CC=C2)C1=O	466	460	456	465	440	468	464	458	435
CN(C)CCc1c[nH]c2ccc(C[C@H]3COC(=O)N3)cc12	423	433	449	405	409	411	384	340	381
N[S+](=O)([O-])c1cc(Cl)c(Cl)c([S+](N)(=O)[O-])c1	453	445	458	448	460	473	450	446	449
CC(C)(C)C(=O)OCOP(=O)(COCCn1cnc2c(N)ncnc21)OCOC(=O)C(C)(C)C	306	259	278	316	287	309	291	238	235

SMILES	AUC of viability dose-response curve (NOMO1; HPLM + 10% dialyzed FBS)	AUC of viability dose-response curve (NOMO1; RPMI 5 mM glucose + 10% FBS)	AUC of viability dose-response curve (NOMO1; [1])	AUC of viability dose-response curve (P12-Ichikawa; HPLM + 10% dialyzed FBS)	AUC of viability dose-response curve (P12-Ichikawa; RPMI 5 mM glucose + 10% FBS)	AUC of viability dose-response curve (P12-Ichikawa; [1])	AUC of viability dose-response curve (SEM cells; HPLM + 10% dialyzed FBS)	AUC of viability dose-response curve (SEM cells; RPMI 5 mM glucose + 10% FBS)	AUC of viability dose-response curve (SEM cells; [1])
C1CCC(C(CC2CCCCN2)C2CCCCC2)CC1 (stereo not given)	451	454	446	470	457	465	429	429	405
ClC1=CC(=CC=C1)N2CCN(CCCN3\N=C4\C=C/C=C\N4C3=O)CC2	465	453	451	453	473	468	419	446	464
CCOC(=O)[C@H](CCc1ccccc1)N[C@@H](C)C(=O)N1CCC[C@H]1C(=O)O	453	437	461	452	447	465	462	470	434
CCOc1cc(N)c(Cl)cc1C(=O)NCC1CN(Cc2ccc(F)cc2)CCO1 (stereo not given)	464	470	460	467	467	469	419	467	466
Cc1ncc(OC[C@@]2(c3cccc(F)c3)C[C@H]2C(=O)Nc2ccc(F)cn2)c(C)n1	476	474	464	455	474	470	444	435	452
CN(C)C(=O)c1ccc([S+](=O)([O-])c2ccc(NC(=O)[C@@](C)(O)C(F)(F)F)c(Cl)c2)cc1	411	425	451	455	448	446	472	417	444
CCN(CC)CCCCNc1nc2cc(Cl)c(Cl)cc2nc1-c1ccc(-c2cccs2)s1	444	454	453						
Cc1cccc(C)c1OCC(=O)N[C@@H](Cc1ccccc1)[C@@H](O)C[C@H](Cc1ccccc1)NC(=O)[C@H](C(C)C)N1CCCNC1=O	443	418	422	443	448	414	391	435	435
C[C@@H]1COCCN1C\2=C\C(=O)N\3CC[C@H](N(CC4=CN=CC(=C4)Cl)C3=N2)C(F)(F)F	430	418	400	417	409	415	391	404	397
C[S+](=O)([O-])N(Cc1ccco1)CC(O)Cn1c2ccccc2c2ccccc21 (stereo not given)	421	415	417	436	414	409	407	396	381
C[C@@H]1CN[C@H]2[C@@H](C)[C@@]\3(CC[C@H]\4[C@@H]5C/C=C6/C[C@@H](O)CC[C@]6(C)[C@H]5CC4=C3C)O[C@@H]2C1	449	460	451	454	441	449	460	462	469
O=C(Nc1cccc(Nc2ncc(Br)c(NCCc3cnc[nH]3)n2)c1)N1CCCC1	349	342	369	318	294	344	213	203	191
CCC1(c2ccc(N)cc2)CCC(=O)NC1=O (stereo not given)	463	473	465	449	427	434	433	424	401
O=C(CO)N1CCC(c2n[nH]c(-c3ccc(Cl)cc3)c2-c2ccncn2)CC1	438	453	446	441	420	423	411	403	404
OCc1ccc(-c2nn(Cc3ccccc3)c3ccccc23)o1	385	425	405	442	464	459	369	346	347
CC(=O)OCC(=O)[C@@]12\N=C(C)/O[C@@H]1C[C@H]3[C@@H]4CCC/5=C/C(=O)/C=C\[C@]5(C)[C@H]4[C@@H](O)C[C@]23C	470	468	462	436	427	415	404	432	444
NC1=NC=C(C=C1)C2=CC=C3N=CC\4=C(N(C(=O)\C=C4)C5=CC(=CC=C5)C(F)(F)F)C3=C2	191	214	194						
COc1cc(Nc2ncc(F)c(Nc3ccc4c(n3)NC(=O)C(C)(C)O4)n2)cc(OC)c1OC	379	392	404	373	386	384			
CN1CCC(CC1)COC2=CN=C(N=C2)C3=CC(=CC=C3)CN4/N=C(\C=C/C4=O)C5=CC(=CC=C5)C#N	468	464	471	472	465	464			
CCN(CC)C(=S)SSC(=S)N(CC)CC	375	365	361	366	363	362			
CO[C@H]1C[C@@H]2CC[C@@H](C)[C@@](O)(O2)C(=O)C(=O)N2CCCC[C@H]2C(=O)O[C@H]([C@H](C)C[C@@H]2CC[C@@H](OC(=O)C(C)(CO)CO)[C@H](OC)C2)CC(=O)[C@H](C)/C=C(\C)[C@@H](O)[C@@H](OC)C(=O)[C@H](C)C[C@H](C)/C=C/C=C/C=C/1C	453	435	447	427	409	418			
CC(C)(C)c1cc(C=C(C#N)C#N)cc(Br)c1O	473	471	456	453	452	452			
